target: T1, Parkin (Homo sapiens, UniProt O60260); assay: Parkin pUB auto-ubiquitinylation assay (TR-FRET); format: biochemical; details: not given
T1 construct: Enzyme 3: Parkin-His tagged 203 μM (10.5 mg/ml)
Description: A Parkin pUB Auto-ubiquitinylation Assay is used to evaluate a compound's potency to activate Parkin's ability to Auto-ubiquitinylate itself.
The principle of this assay is that the E3 Ligase Parkin catalyzes the transfer of Ubiquitin to target proteins, but also has the ability to auto-ubiquitinylate itself. The phospho-Ubiquition (pUb) added to the assay alters the Parkin to a state where small molecule activators can enable the Parkin to auto-ubiquitinylate though the E1-E2 cascade reaction. The use of a Eu cryptate Ubiquition and anti 6His-d2 that binds to the His tagged Parkin will give a signal when the Eu cryptate Ubiquition is auto-ubiquitinylate onto the Parkin which can be monitored by TR-FRET.
Similar to the Activity-based probe assay in Example 2, screening for activating compounds can be distinguished from the controls as follows:
100% activation signal=pUb activated Parkin+40 nM control activator in DMSO. 0% activation signal=pUb activated Parkin+DMSO only. Parkin activators can be identified by an increase of the 0% activation signal TR-FRET signal.
• Assay Plate: White 384 well plate (Corning 3572) • Enzyme 1: E1 (Ubiquitin-activating enzyme/UBE1 Boston Biochem E-305) • Enzyme 2: E2 (UBcH7/Ube2L3 Boston Biochem E2-640) • Enzyme 3: Parkin-His tagged 203 μM (10.5 mg/ml) • pUb: Phospho-Ubiquitin (S65) (Boston Biochem U-102) • Eu Cryptate Reagent: Ubiquitin Eu (CisBio 61UBIKLA) • DMSO: DMSO (Sigma-34869-2.5L) • Reaction Buffer: 50 mM HEPES, 50 mM NaCl, 1 mM MgCl2, 0.005% Tween 20, 0.1% • PF-127 (Fisher Scientific 50-310-494), pH 8.5 • Detection Buffer: 50 mM HEPES, 50 mM NaCl, 800 mM KF, 5 mM EDTA, 0.005% • Tween 20, 0.1% PF-127, pH 8.5 • Detection Reagent Z: 13.4 nM Anti-6His-d2 in detection buffer • d2 Reagent: Anti-6His-d2 (CisBio 61HISDLA)
Enzyme Reaction (15 min Pre-Incubation with Parkin, pUb and Activator Only) • Parkin: 196 nM • pUb: 196 nM • DMSO: 1% DMSO • E1: 5 nM • E2: 50 nM • Ubiquitin Eu: 8.8 nM • Reaction time: 120 minutes • Temperature: 22° C. • Total volume: 10 μl reaction
Take 10 μl of Enzyme Reaction above and add 10 μl detection Reagent Z under the following conditions:
Reaction time: 60 minutes
1) Load assay plate wells with 4.9 μl 400.0 nM Parkin, 400 nM pUb in reaction buffer by use of Eppendorf 12-channel pipette. 2) Deliver 0.1 μl 100× activator candidates in DMSO by use of Echo 555 compound dispenser. Highest 100× concentration=100 μm and then twofold dilutions. Add each compound and control in duplicate wells. 3) Spin 1000 rpm, 2 minutes, at room temp. 4) Incubate plate for 15 minutes at room temp. 5) Add 5 μl 10 nM E1, 100 nM E2, 17.6 nM Ubiquitin Eu and 2 mM ATP in Reaction Buffer by use of Eppendorf 12-channel pipette. 6) Spin 1000 rpm, 2 minutes, at room temp. 7) Incubate plate for 120 minutes at room temp. 8) Add 10 μl 13.4 nM anti his d2 in detection buffer by use of Eppendorf 12-channel pipette. 9) Spin 1000 rpm, 2 minutes, at room temp. 10) Incubate plate for 120 minutes at room temp. 11) Read plates on Perkin Elmer Envision instrument with the following parameters:
LANCE dual laser protocol loaded into the Envision® software
Top Mirror: LANCE/DELFIA Duel/Bias (Bar code 446) Emission Filter: APC 665 EM (Bar code 205) 2nd Emission Filter: Europium 615 EM (Bar code 203) Read […] (channel 1) and 615 nm (channel 2) wavelengths on Envision®
Data Analysis: The Data can be read in CSV files. There are two tables in those CSV files, which are the values of 655 nm (channel 1) and 615 nm (channel 2) wavelengths respectively. The data is converted to an HTRF Ratio=(Channel 1/Channel 2)*10,000
The average of all the 0 uM controls (DMSO only)=BKGD (Background—0% activation). Subtract BKGD from each HTRF Ratio value=HTRF-BKGD. The average of all the 100 uM control activator in DMSO controls=Max (100% activation). The following equation is then used to calculate % Activation for each well/candidate as follows: % Activation=(HTRF−BKGD/Max)*100.
XLFIT5 model 205 was applied for the data analysis. […]

T1 sequence (O60260 whole entry, other chains not shown): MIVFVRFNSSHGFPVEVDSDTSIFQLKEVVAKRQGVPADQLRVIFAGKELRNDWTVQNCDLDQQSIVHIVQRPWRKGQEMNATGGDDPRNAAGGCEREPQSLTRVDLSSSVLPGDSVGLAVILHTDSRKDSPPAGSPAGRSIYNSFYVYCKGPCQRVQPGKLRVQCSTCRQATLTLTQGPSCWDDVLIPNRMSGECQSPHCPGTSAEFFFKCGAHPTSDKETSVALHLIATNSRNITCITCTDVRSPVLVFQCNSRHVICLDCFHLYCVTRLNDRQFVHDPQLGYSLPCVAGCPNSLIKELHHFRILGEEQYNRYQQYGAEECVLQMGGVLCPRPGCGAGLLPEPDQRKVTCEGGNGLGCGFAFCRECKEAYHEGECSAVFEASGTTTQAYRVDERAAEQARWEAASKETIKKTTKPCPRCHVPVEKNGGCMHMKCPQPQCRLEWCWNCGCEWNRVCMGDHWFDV

Row | Parkin activity in an auto-ubiquitination assay | SMILES
1 | increases | Cc1nc2c(-c3ccccc3)c(C)nn2c(S)c1Cc1ccccc1 [Compound A, 6-benzyl-2,5-dimethyl-3-phenylpyrazolo[1,5-a]pyrimidine-7-thiol]
2 | increases | Cc1cc(S)n2ncc(-c3ccc(F)cc3)c2n1 [Compound L, 3-(4-fluorophenyl)-5-methylpyrazolo[1,5-a]pyrimidine-7-thiol]

same assay, conditions: activation of pUb activated Parkin; read-out: Auto-ubiq EC50 (μM) [Example 3]

Row | SMILES | EC50 [µM]
3 | Cc1cc(S)n2ncc(-c3cc[nH]c(=O)c3)c2n1 [Compound A3] | > 40
4 | Cc1nc2c(-c3ccccc3)c(C)nn2c(S)c1Cc1ccncc1 [Compound AA, 2,5-dimethyl-3-phenyl-6-(4-pyridylmethyl)pyrazolo[1,5-a]pyrimidine-7-thiol] | > 40
5 | COc1ccc(Cn2ccc(-c3cnn4c(S)cc(C)nc34)cc2=O)cc1 [Compound B3] | > 40
6 | Cc1nc2c(-c3ccccc3)c(C)nn2c(S)c1Cc1ccccn1 [Compound BB, 2,5-dimethyl-3-phenyl-6-(2-pyridylmethyl)pyrazolo[1,5-a]pyrimidine-7-thiol] | 8.8
7 | CCCc1cc(S)n2nc(C)c(-c3ccccc3)c2n1 [Compound B] | > 40
8 | Cc1nc2c(-c3ccccc3)cnn2c(S)c1Cc1ccccc1 [Compound CC, 6-benzyl-5-methyl-3-phenyl-pyrazolo[1,5-a]pyrimidin-7-thiol] | > 40
9 | Cc1cc(S)n2ncc(-c3ccccc3)c2n1 [Compound C] | > 40
10 | Cc1nn2c(S)c(Cc3ccccc3)cnc2c1-c1ccccc1 [Compound DD, 6-benzyl-2-methyl-3-phenyl-pyrazolo[1,5-a]pyrimidin-7-thiol] | > 40
11 | COc1ccccc1-c1c(C)nn2c(S)cc(C)nc12 [Compound D] | 11.7
12 | Cc1cc(C)c2c(n1)nn1c(S)cc(C)nc21 [Compound E] | 10.1
13 | Cc1nc2c(C#N)c(C)nn2c(O)c1Cc1ccccc1 [Compound GG, 6-benzyl-7-hydroxy-2,5-dimethyl-pyrazolo-[1,5-a]pyrimidine-3-carbonitrile] | > 40
14 | CC(C)(C)c1cc(O)n2ncc(-c3ccc(Cl)cc3)c2n1 [Compound G] | > 40
15 | CCc1nn2c(S)cc(C)nc2c1-c1ccc(F)cc1 [Compound I] | 6.4
16 | Cc1nn2c(S)c3c(nc2c1-c1ccccc1)CCCC3 [Compound K] | > 40
17 | Cc1cc(S)n2ncc(-c3ccc(F)cc3)c2n1 [Compound L, 3-(4-fluorophenyl)-5-methylpyrazolo[1,5-a]pyrimidine-7-thiol] | 27.1
18 | Cc1cc2nc(C)c(Cc3ccc(Cl)cc3)c(O)n2n1 [Compound P, 6-[(4-chlorophenyl)methyl]-2,5-dimethyl-pyrazolo[1,5-a]pyrimidin-7-ol] | 20.1
19 | Cc1cc2nc(C)c(Cc3ccc(Cl)cc3)c(S)n2n1 [Compound R, 6-[(4-chlorophenyl)methyl]-2,5-dimethyl-pyrazolo[1,5-a]pyrimidine-7-thiol] | > 40
20 | Cc1nc2c(-c3ccccc3)cnn2c(O)c1Cc1ccccc1 [Compound U, 6-benzyl-5-methyl-3-phenyl-pyrazolo[1,5-a]pyrimidin-7-ol] | 14.7
21 | Cc1nn2c(O)c(Cc3ccccc3)cnc2c1-c1ccccc1 [Compound V, 6-benzyl-2-methyl-3-phenyl-pyrazolo[1,5-a]pyrimidin-7-ol] | > 40
22 | Oc1c(Cc2ccccc2)cnc2c(-c3ccccc3)cnn12 [Compound W, 6-benzyl-3-phenyl-pyrazolo[1,5-a]pyrimidin-7-ol] | > 40
23 | Cc1nc2c(-c3ccccc3)c(C)nn2c(O)c1Cc1ccncc1 [Compound X, 2,5-dimethyl-3-phenyl-6-(4-pyridylmethyl)pyrazolo[1,5-a]pyrimidin-7-ol] | > 40

Row | SMILES | EC50 [µM]
24 | Cc1nc2c(-c3ccccc3)c(C)nn2c(O)c1Cc1ccccn1 [Compound Y, 2,5-dimethyl-3-phenyl-6-(2-pyridylmethyl)pyrazolo[1,5-a]pyrimidin-7-ol] | > 40
25 | Sc1c(Cc2ccccc2)cnc2c(-c3ccccc3)cnn12 [Compound Z, 6-benzyl-3-phenyl-pyrazolo[1,5-a]pyrimidin-7-thiol] | > 40
26 | Cc1nc2c(C(=O)N(C)C)c(C)nn2c(O)c1Cc1ccccc1 [EE] | > 40
27 | Cc1nc2c(-c3ccccn3)c(C)nn2c(O)c1Cc1ccccc1 [FF] | > 40
28 | Cc1nn2c(O)cc(C(C)(C)C)nc2c1-c1ccc(Cl)cc1 [F] | > 40
29 | Cc1nc2c(-c3ccccn3)c(C)nn2c(S)c1Cc1ccccc1 [HH] | > 40
30 | Cc1nn2c(S)cc(C(C)C)nc2c1-c1ccccc1 [H] | > 40
31 | Cc1nc2c(C(=O)N(C)C)c(C)nn2c(S)c1Cc1ccccc1 [II] | > 40
32 | Cc1nc2c(C(F)(F)F)c(C)nn2c(O)c1Cc1ccccc1 [JJ] | > 40
33 | CC(C)(C)c1cc(O)n2ncc(-c3ccccc3)c2n1 [J] | 13.4
34 | Cc1nc2c(C(F)(F)F)c(C)nn2c(S)c1Cc1ccccc1 [LL] | 16.5
35 | Cc1nc2c(-c3ccncc3)c(C)nn2c(S)c1Cc1ccccc1 [MM] | > 40
36 | Cc1cc(O)n2nc(C)c(-c3ccc(Cl)cc3)c2n1 [M] | > 40
37 | Cc1cc(C)c2c(n1)nn1c(O)c(Cc3ccccc3)c(C)nc21 [NN] | > 40
38 | Cc1cc(S)n2nc(C)c(-c3ccc(Cl)cc3)c2n1 [N] | > 40
39 | Cc1nc2c(C#N)c(C)nn2c(S)c1Cc1ccccc1 [OO] | > 40
40 | Cc1cc(S)n2nc(C)c(-c3ccccc3)c2n1 [O] | > 40
41 | Cc1cc(O)n2ncc(-c3ccc(F)cc3)c2n1 [PP] | > 40
42 | Cc1nc2c(-c3ccccc3)c(C)nn2cc1Cc1ccccc1 [QQ] | > 40
43 | Cc1cc2nc(C)c(Cc3ccccc3)c(O)n2n1 [Q] | > 40

Other lines, results leading:

Row | EC50 [µM] | SMILES
44 | > 40 | Cc1nn2c(S)c3c(nc2c1-c1ccccc1)CN(C)CC3 [Compound C3]
45 | 21 | Cc1nc2c(-c3cccnc3)c(C)nn2c(S)c1Cc1ccccc1 [Compound D3]
46 | 29 | Cc1nn2c(S)c(CCc3ccccc3)cnc2c1-c1ccccc1 [Compound E3]
47 | 32 | Cc1cc(S)c2ncc(-c3ccc(F)cc3)n2n1 [Compound F3]
48 | > 40 | Cc1nn2c(S)c(CC(C)C)cnc2c1-c1ccccc1 [Compound G3]
49 | > 40 | Cc1ccc(-c2cnn3c(O)cc(C)nc23)cc1 [Compound H3]
50 | > 40 | Cc1nn2c(O)c(CC(C)C)cnc2c1-c1ccccc1 [Compound I3]
51 | > 40 | COc1ccc(-c2cnn3c(O)cc(C)nc23)cc1 [Compound J3]
52 | > 40 | Cc1nn2c(O)c3c(nc2c1-c1ccccc1)CCN(C)C3 [Compound K3]
53 | > 40 | Cc1nc2c(-c3cccnc3)c(C)nn2c(O)c1Cc1ccccc1 [Compound L3]
54 | > 40 | Cc1cc(O)n2ncc(-c3cccc(N(C)C)c3)c2n1 [Compound M3]
55 | > 40 | Cc1nc2c(C3CCN(C)CC3)c(C)nn2c(S)c1Cc1ccccc1 [Compound N3]
56 | > 40 | Cc1nc2c(C3CCN(C)CC3)c(C)nn2c(O)c1Cc1ccccc1 [Compound O3]
57 | > 40 | Cc1ccc(-c2cnn3c(O)c4c(nc23)CN(C)CC4)cc1 [Compound P3]
58 | > 40 | Cc1ccc(-c2cnn3c(S)c4c(nc23)CN(C)CC4)cc1 [Compound S3]

Reference: patent US20210163489A1, “PYRAZOLOPYRIMIDINE DERIVATIVES AND THE COMPOSITIONS AND METHODS OF TREATMENT REGARDING THE SAME” (NysnoBio Ireland DAC, priority 2016, published 2021)
